Tests used:
human CB1 receptors = human CB1 receptors (Homo sapiens (Human), UniProt P21554); assay: cAMP assay, CHO cells expressing human CB1 receptors; type: cell-based; settings: functional cAMP assay, CHO cells expressing human CB1; read-out: human CB1 EC50
human CB2 receptors = human CB2 receptors (Homo sapiens (Human), UniProt P34972); assay: cAMP assay, CHO cells expressing human CB2 receptors; type: cell-based; settings: functional cAMP assay, CHO cells expressing human CB2; read-out: human CB2 EC50
human CB2 receptors, sequence (P34972 whole entry): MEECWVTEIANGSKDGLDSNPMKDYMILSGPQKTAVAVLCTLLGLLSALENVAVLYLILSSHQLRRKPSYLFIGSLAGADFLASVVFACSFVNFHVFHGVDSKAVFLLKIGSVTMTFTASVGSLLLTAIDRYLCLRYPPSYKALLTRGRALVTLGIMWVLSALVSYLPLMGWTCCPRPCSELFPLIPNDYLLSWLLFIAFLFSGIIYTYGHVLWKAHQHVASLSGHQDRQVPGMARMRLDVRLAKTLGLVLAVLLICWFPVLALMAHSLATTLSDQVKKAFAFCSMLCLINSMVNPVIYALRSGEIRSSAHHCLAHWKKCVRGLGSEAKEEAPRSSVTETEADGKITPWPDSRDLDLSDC

human CB1 receptors, sequence (P21554 whole entry): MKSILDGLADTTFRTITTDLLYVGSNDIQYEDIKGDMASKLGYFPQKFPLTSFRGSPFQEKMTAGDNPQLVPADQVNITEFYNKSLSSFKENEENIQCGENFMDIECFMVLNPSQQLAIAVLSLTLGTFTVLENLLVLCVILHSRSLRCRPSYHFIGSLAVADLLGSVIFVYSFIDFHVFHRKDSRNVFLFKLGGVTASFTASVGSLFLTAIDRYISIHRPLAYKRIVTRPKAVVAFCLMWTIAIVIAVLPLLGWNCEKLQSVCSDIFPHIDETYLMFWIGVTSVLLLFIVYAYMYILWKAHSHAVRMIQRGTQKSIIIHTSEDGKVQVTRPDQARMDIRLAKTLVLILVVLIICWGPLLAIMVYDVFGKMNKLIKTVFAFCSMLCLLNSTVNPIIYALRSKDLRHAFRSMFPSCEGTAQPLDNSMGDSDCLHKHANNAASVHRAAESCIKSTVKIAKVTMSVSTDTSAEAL

Compound `NC(=O)CC1(NC(=O)c2ccc(C3(O)CCC3)c(OCC3CC3)n2)CS(=O)(=O)C1` [Example 92, N-[3-(2-Amino-2-oxoethyl)-1,1-dioxothietan-3-yl]-6-(cyclopropylmethoxy)-5-(1-hydroxycyclobutyl)pyridine-2-carboxamide] has an EC50 (human CB1 receptors) greater than 10000 nM and an EC50 (human CB2 receptors) of 2.2 nM.
In the case of `NC(=O)CC1(NC(=O)c2ccc(C3(F)COC3)c(OCC3CC3)n2)COC1` [Example 93, N-[3-(2-Amino-2-oxoethyl)oxetan-3-yl]-6-(cyclopropylmethoxy)-5-(3-fluorooxetan-3-yl)pyridine-2-carboxamide], the EC50 (human CB1 receptors) is reported as greater than 10000 nM and the EC50 (human CB2 receptors) is reported as 14.9 nM.
`NC(=O)CC1(NC(=O)c2ccc(C3(O)COC3)c(OCC3CC3)n2)COC1` [Example 94, N-[3-(2-Amino-2-oxoethyl)oxetan-3-yl]-6-(cyclopropylmethoxy)-5-(3-hydroxyoxetan-3-yl)pyridine-2-carboxamide] showed an EC50 (human CB1 receptors) greater than 10000 nM and an EC50 (human CB2 receptors) of 251 nM.
In the case of `NC(=O)CC1(NC(=O)c2ccc(C3(O)CCC3)c(OCC3CC3)n2)CSC1` [Example 95, N-[3-(2-Amino-2-oxoethyl)thietan-3-yl]-6-(cyclopropylmethoxy)-5-(1-hydroxycyclobutyl)pyridine-2-carboxamide], the EC50 (human CB1 receptors) is reported as greater than 10000 nM and the EC50 (human CB2 receptors) is reported as 1.1 nM.
With `NC(=O)CC1(NC(=O)c2ccc(C3CC3)c(OCC3CC3)n2)CSC1` [Example 96, N-[3-(2-Amino-2-oxoethyl)thietan-3-yl]-5-cyclopropyl-6-(cyclopropylmethoxy)pyridine-2-carboxamide] the EC50 (human CB1 receptors) was greater than 10000 nM and the EC50 (human CB2 receptors) was 1.8 nM.
Work on `NC(=O)CC1(NC(=O)c2ccc(C(F)(F)F)c(OCC3CC3)n2)CSC1` [Example 97, N-[3-(2-Amino-2-oxoethyl)thietan-3-yl]-6-(cyclopropylmethoxy)-5-(trifluoromethyl)pyridine-2-carboxamide] yielded an EC50 (human CB1 receptors) greater than 10000 nM and an EC50 (human CB2 receptors) of 11.5 nM.
`NC(=O)CC1(NC(=O)c2ccc(C3(F)COC3)c(OCC3CC3)n2)CSC1` [Example 98, N-[3-(2-Amino-2-oxoethyl)thietan-3-yl]-6-(cyclopropylmethoxy)-5-(3-fluorooxetan-3-yl)pyridine-2-carboxamide] showed an EC50 (human CB1 receptors) greater than 10000 nM and an EC50 (human CB2 receptors) of 1.2 nM.
